Results: patent US20160166604A1, “Thiol-Sensitive Positive Inotropes” (priority 2005, published 2016)
Entries after “also recorded” stand apart in the source; their conditions may differ.

Experiments:
[1] = End-diastolic pressure-volume relationship (EDPVR) in chronically instrumented dogs with pacing-induced cardiac failure; type: in vivo; details: CHF dog preparations
Method: Adult male mongrel dogs (22-25 kg) were chronically instrumented for pressure-dimension analysis as described. See, Paolocci et al., “Positive Inotropic and Lusitropic Effects of HNO/NO− in Failing Hearts: Independence from Beta-Adrenergic Signaling,” Proc. Natl. Acad. Sci. USA., 100, 5537-5542 (2003); and Senzaki et al., Circulation, 101, 1040-1048 (2000). Animals were anesthetized with 1% to 2% halothane after induction with sodium thiopental (10-20 mg/kg, i.v.). The surgical/experimental animal protocol was approved by the Johns Hopkins University Animal Care and Use Committee. […] Cardiac failure was induced by rapid ventricular pacing for 3 weeks as described. See, Paolocci et al., supra, and Senzaki et al., supra.
Hemodynamic data were digitized at 250 Hz. […] These relations strongly correlate with results from pressure-volume data in normal and failing hearts, as previously validated. Cardiovascular function was assessed by stroke dimension, fractional shortening (stroke dimension/end-diastolic dimension [EDD]), estimated cardiac output (stroke dimension×HR), peak rate of pressure rise (dP/dtmax), end-systolic elastance (Ees, slope of end-systolic pressure-dimension relation [ESPDR]), the slope of dP/dtmax-EDD relation (DEDD) (see, Little, Circ Res., 56:808-815 (1985)), pre-recruitable stroke work (PRSW), (based on dimension-data), estimated arterial elastance (Ea, end systolic pressure/stroke dimension) and estimated total resistance (RT, […]). Ees, DEDD and PRSW provide load-insensitive contractility measures.
The end-diastolic pressure-volume relationship (EDPVR) was determined applying non-linear regression analysis to the end-diastolic pressure and volume points (Ped and Ved, respectively), according to Kass, Cardiol Clin., 18, 571-86 (2000) (Review).
In order to evaluate the impact of each pharmacological intervention on the EDPVR, changes in end-diastolic pressure from baseline (ΔPed) at volumes providing baseline end-diastolic pressure of […] mmHg EDP (V10, V15, V20, respectively) were determined (FIG. 5).

RyR2 = biological target: T1, RyR2 (Mus musculus, UniProt E9Q401); experiment: Spontaneous Ca2+ sparks and spark frequency in intact murine myocytes; type: cell-based; details: for effect on Ca2+ sparks in control and AS (0.5 mM) cells: thapsigargin 10 μM, 30 min, ryanodine 10 μM
T1 construct: endogenous in cells; host or cells: freshly isolated adult mouse cardiac myocytes
Method: Freshly isolated mouse cardiac myocytes were loaded with the Ca^2+ indicator fluo-4/AM (Molecular Probes, 20 μM for 30 min). Confocal images were acquired using a confocal laser-scanning microscope (LSM510, Carl Zeiss) with a Zeiss Plan-Neofluor 40× oil immersion objective (NA≈1.3). Fluo-4/AM was excited by an argon laser (488 nm), and fluorescence was measured at >505 nm. Images were taken in the line-scan mode, with the scan line parallel to the long axis of the myocytes. Each image consisted of 512 line scans obtained at 1.92 ms intervals, each comprising 512 pixels at 0.10 μm separation. Digital image analysis used customer-designed programs coded in Interactive Data language (IDL) and a modified spark detection algorithm. Cheng, H. et al., Biophys. J., 76, 606-617 (1999).
Nitroxyl (HNO) confers positive inotropy in vivo. Here, it was determined whether HNO action stems from a direct influence on sarcoplasmic reticulum (SR) Ca^2+ cycling, involving enhanced Ca^2+ release from ryanodine receptors (RyR2). Myocytes were isolated from ST mice, suspended in Tyrode's solution (1 mM Ca^2+) and field stimulated (0.5 Hz, 25° C.). Sarcomere shortening (SS) was assessed by real-time image analysis, Ca^2+ transients from Indo-1 fluorescence. RyR2 activity was determined by optical imaging of Ca^2+ release from single Ca^2+ release units. The HNO donor Angeli's Salt (AS) induced dose-dependent inotropy (SS: 73±31% at 0.5 mM; 131±31% at 1 mM; all n=15, p<0.05 vs. base; <0.1 mM: no effect). In contrast, the NO donor DEA/NO reduced SS by 55-65% at 5-50 μM (both p<0.05 vs. base), with no effect at higher doses. […] However, co-infusion with the thiol-donating compound N-acetyl-L-cysteine (NAC, 3 mM) abolished AS inotropy.

SR Ca2+ pump (SERCA2a) = biological target: T2, SR Ca2+ pump (SERCA2a) (Mus musculus, UniProt O55143); experiment: ATP-dependent Ca2+ uptake by murine cardiac SR vesicles (stopped-flow, arsenazo III); type: biochemical
T2 construct: Crude cardiac microsomal vesicles containing fragmented sarcoplasmic reticulum (SR) were prepared; from tissue; host or cells: pooled hearts of C57 male mice (crude SR microsomal vesicles)
Method: Crude cardiac microsomal vesicles containing fragmented sarcoplasmic reticulum (SR) were prepared as previously described for rat heart. Froehlich, J. P. et al., J. Mol. Cell. Cardiol., 10, 427-438 (1978). Pooled hearts from C57 male mice sacrificed by cervical dislocation were placed in 0.9% saline on ice, trimmed of atrial and connective tissue, and weighed. The finely minced heart muscle was homogenized in 10 mM NaHCO3 using a Polytron blender and the SR vesicles were separated from the myofilaments, mitochondria and nuclear membranes by differential centrifugation at 8,500 and 45,000×g. SR vesicles suspended in 0.25 M sucrose+10 mM MOPS, pH 7.0 were frozen and stored in liquid nitrogen prior to use. Twenty minutes prior to measuring Ca^2+ uptake, cardiac SR vesicles (1 mg/ml in storage buffer) were incubated with 250 μM AS delivered from a freshly-prepared 10 mM stock solution of AS (Na2N2O3) dissolved in 10 mM NaOH. […] Stopped-flow mixing was used to measure the initial time course of Ca^2+ accumulation by murine cardiac SR vesicles using the Ca^2+ indicator dye, arsenazo III. Membrane vesicles (0.4 mg/ml) suspended in a medium containing 100 mM KCl, 1 mM MgCl2, 50 μM arsenazo III, 5 mM sodium azide, and 20 mM MOPS, pH 7.4, were mixed with an equal volume of an identical medium containing 1 mM Na2ATP at 24° C. in a manually-operated stopped-flow apparatus (Applied Photophysics, Ltd.). The change in [Ca^2+] in the mixing cuvette was monitored using a single-beam UV-VIS spectrophotometer (AVIV, Model 14DS) with a monochromator setting of 650 nm. The total [Ca^2+] in the uptake medium was 0.5 μM, yielding a free [Ca^2+] in equilibrium with the Ca-arsenazo III complex of 0.2 μM (KA=3.3×10^4 M^−1). […] The time-dependent decrease in absorbance at 650 nm, reflecting Ca^2+ uptake by the SR vesicles, was monitored for 30-60 s at 0.1 s intervals. […] The signal change due to vesicle light scattering was evaluated from separate measurements conducted under identical conditions at the isosbestic wavelength of 693 nm. For evaluation of the time course of Ca^2+ uptake, a representative trace at 693 nm was subtracted from each of the individual traces at 650 nm acquired under identical conditions. The kinetic and thermodynamic parameters for Ca^2+ uptake were evaluated by fitting stopped-flow signals to one- and two-exponential decay functions plus a residual term using non-linear regression (Prism, Version 3.03). Residual plots of the difference between the fitted curve and data points were used to evaluate systematic errors in the fits and to calculate the sum-of-squares error used in selecting the best fit.
To test whether HNO directly enhances SR Ca^2+ uptake, its effects on SR membrane vesicles isolated from pooled C57/Bl6 mouse hearts were studied. Crude SR microsomal vesicles were incubated with 250 μM AS prior to measuring ATP-dependent Ca uptake by stopped-flow mixing at 24° C. Arsenazo III, a mid-range Ca indicator, was used to monitor Ca removal from the eravesicular compartment and buffer the free [Ca^2+] at a level producing half-saturation of the Ca^2+ pump (˜0.2 μM).

[2] = test system: isolated mouse ventricular myocytes; experiment: Sarcomere shortening in field-stimulated isolated mouse ventricular myocytes; type: cell-based
Method: Wild type 2-4 month old mice were anesthetized with intraperitoneal pentobarbital sodium (100 mg/kg/ip). Hearts were perfused as previously described. Mongillo, M. et al., Circ. Res., 98, 226-234 (2006). To assess for sarcomere shortening, cells were imaged using field stimulation (Warner instruments) in an inverted fluorescence microscope (Diaphot 200; Nikon, Inc). Sarcomere length was measured by real-time Fourier transform (IonOptix MyoCam, CCCCD100M) and cell twitch amplitude is expressed as a percentage of resting cell length. Twitch kinetics was quantified by measuring the time to peak shortening and the time from peak shortening to 50% relaxation. For whole calcium transient measurements, myocytes were loaded with the Ca^2+ indicator fluo-4/AM (Molecular Probes, 20 μM for 30 min) and Ca^2+ transients were measured under field-stimulation at 0.5 Hz in perfusion solution by confocal laser scanning microscope (LSM510, Carl Zeiss). Digital image analysis used customer-designed programs coded in Interactive Data Language (IDL).
Nitroxyl (HNO) confers positive inotropy in vivo. Here, it was determined whether HNO action stems from a direct influence on sarcoplasmic reticulum (SR) Ca^2+ cycling, involving enhanced Ca^2+ release from ryanodine receptors (RyR2). Myocytes were isolated from ST mice, suspended in Tyrode's solution (1 mM Ca^2+) and field stimulated (0.5 Hz, 25° C.). Sarcomere shortening (SS) was assessed by real-time image analysis, Ca^2+ transients from Indo-1 fluorescence. RyR2 activity was determined by optical imaging of Ca^2+ release from single Ca^2+ release units.

[3] = test system: cardiac myocytes from WT and Gαq overexpressing FVB/N mice; experiment: Sarcomere shortening in cardiac myocytes from WT and Gαq overexpressing mice; type: cell-based, mouse; details: for enhancement of sarcomere shortening: WT cells
Method: Cardiac myocytes were isolated from WT and Gαq overexpressing 2-6 month old FVB/N mice, suspended in Tyrode's solution (1 mM calcium) and field stimulated at 0.5 Hz at 23° C. Sarcomere shortening (SS) was assessed by real-time image analysis; data are presented at steady-state (10 minutes drug infusion).

T1 sequence (E9Q401 whole entry): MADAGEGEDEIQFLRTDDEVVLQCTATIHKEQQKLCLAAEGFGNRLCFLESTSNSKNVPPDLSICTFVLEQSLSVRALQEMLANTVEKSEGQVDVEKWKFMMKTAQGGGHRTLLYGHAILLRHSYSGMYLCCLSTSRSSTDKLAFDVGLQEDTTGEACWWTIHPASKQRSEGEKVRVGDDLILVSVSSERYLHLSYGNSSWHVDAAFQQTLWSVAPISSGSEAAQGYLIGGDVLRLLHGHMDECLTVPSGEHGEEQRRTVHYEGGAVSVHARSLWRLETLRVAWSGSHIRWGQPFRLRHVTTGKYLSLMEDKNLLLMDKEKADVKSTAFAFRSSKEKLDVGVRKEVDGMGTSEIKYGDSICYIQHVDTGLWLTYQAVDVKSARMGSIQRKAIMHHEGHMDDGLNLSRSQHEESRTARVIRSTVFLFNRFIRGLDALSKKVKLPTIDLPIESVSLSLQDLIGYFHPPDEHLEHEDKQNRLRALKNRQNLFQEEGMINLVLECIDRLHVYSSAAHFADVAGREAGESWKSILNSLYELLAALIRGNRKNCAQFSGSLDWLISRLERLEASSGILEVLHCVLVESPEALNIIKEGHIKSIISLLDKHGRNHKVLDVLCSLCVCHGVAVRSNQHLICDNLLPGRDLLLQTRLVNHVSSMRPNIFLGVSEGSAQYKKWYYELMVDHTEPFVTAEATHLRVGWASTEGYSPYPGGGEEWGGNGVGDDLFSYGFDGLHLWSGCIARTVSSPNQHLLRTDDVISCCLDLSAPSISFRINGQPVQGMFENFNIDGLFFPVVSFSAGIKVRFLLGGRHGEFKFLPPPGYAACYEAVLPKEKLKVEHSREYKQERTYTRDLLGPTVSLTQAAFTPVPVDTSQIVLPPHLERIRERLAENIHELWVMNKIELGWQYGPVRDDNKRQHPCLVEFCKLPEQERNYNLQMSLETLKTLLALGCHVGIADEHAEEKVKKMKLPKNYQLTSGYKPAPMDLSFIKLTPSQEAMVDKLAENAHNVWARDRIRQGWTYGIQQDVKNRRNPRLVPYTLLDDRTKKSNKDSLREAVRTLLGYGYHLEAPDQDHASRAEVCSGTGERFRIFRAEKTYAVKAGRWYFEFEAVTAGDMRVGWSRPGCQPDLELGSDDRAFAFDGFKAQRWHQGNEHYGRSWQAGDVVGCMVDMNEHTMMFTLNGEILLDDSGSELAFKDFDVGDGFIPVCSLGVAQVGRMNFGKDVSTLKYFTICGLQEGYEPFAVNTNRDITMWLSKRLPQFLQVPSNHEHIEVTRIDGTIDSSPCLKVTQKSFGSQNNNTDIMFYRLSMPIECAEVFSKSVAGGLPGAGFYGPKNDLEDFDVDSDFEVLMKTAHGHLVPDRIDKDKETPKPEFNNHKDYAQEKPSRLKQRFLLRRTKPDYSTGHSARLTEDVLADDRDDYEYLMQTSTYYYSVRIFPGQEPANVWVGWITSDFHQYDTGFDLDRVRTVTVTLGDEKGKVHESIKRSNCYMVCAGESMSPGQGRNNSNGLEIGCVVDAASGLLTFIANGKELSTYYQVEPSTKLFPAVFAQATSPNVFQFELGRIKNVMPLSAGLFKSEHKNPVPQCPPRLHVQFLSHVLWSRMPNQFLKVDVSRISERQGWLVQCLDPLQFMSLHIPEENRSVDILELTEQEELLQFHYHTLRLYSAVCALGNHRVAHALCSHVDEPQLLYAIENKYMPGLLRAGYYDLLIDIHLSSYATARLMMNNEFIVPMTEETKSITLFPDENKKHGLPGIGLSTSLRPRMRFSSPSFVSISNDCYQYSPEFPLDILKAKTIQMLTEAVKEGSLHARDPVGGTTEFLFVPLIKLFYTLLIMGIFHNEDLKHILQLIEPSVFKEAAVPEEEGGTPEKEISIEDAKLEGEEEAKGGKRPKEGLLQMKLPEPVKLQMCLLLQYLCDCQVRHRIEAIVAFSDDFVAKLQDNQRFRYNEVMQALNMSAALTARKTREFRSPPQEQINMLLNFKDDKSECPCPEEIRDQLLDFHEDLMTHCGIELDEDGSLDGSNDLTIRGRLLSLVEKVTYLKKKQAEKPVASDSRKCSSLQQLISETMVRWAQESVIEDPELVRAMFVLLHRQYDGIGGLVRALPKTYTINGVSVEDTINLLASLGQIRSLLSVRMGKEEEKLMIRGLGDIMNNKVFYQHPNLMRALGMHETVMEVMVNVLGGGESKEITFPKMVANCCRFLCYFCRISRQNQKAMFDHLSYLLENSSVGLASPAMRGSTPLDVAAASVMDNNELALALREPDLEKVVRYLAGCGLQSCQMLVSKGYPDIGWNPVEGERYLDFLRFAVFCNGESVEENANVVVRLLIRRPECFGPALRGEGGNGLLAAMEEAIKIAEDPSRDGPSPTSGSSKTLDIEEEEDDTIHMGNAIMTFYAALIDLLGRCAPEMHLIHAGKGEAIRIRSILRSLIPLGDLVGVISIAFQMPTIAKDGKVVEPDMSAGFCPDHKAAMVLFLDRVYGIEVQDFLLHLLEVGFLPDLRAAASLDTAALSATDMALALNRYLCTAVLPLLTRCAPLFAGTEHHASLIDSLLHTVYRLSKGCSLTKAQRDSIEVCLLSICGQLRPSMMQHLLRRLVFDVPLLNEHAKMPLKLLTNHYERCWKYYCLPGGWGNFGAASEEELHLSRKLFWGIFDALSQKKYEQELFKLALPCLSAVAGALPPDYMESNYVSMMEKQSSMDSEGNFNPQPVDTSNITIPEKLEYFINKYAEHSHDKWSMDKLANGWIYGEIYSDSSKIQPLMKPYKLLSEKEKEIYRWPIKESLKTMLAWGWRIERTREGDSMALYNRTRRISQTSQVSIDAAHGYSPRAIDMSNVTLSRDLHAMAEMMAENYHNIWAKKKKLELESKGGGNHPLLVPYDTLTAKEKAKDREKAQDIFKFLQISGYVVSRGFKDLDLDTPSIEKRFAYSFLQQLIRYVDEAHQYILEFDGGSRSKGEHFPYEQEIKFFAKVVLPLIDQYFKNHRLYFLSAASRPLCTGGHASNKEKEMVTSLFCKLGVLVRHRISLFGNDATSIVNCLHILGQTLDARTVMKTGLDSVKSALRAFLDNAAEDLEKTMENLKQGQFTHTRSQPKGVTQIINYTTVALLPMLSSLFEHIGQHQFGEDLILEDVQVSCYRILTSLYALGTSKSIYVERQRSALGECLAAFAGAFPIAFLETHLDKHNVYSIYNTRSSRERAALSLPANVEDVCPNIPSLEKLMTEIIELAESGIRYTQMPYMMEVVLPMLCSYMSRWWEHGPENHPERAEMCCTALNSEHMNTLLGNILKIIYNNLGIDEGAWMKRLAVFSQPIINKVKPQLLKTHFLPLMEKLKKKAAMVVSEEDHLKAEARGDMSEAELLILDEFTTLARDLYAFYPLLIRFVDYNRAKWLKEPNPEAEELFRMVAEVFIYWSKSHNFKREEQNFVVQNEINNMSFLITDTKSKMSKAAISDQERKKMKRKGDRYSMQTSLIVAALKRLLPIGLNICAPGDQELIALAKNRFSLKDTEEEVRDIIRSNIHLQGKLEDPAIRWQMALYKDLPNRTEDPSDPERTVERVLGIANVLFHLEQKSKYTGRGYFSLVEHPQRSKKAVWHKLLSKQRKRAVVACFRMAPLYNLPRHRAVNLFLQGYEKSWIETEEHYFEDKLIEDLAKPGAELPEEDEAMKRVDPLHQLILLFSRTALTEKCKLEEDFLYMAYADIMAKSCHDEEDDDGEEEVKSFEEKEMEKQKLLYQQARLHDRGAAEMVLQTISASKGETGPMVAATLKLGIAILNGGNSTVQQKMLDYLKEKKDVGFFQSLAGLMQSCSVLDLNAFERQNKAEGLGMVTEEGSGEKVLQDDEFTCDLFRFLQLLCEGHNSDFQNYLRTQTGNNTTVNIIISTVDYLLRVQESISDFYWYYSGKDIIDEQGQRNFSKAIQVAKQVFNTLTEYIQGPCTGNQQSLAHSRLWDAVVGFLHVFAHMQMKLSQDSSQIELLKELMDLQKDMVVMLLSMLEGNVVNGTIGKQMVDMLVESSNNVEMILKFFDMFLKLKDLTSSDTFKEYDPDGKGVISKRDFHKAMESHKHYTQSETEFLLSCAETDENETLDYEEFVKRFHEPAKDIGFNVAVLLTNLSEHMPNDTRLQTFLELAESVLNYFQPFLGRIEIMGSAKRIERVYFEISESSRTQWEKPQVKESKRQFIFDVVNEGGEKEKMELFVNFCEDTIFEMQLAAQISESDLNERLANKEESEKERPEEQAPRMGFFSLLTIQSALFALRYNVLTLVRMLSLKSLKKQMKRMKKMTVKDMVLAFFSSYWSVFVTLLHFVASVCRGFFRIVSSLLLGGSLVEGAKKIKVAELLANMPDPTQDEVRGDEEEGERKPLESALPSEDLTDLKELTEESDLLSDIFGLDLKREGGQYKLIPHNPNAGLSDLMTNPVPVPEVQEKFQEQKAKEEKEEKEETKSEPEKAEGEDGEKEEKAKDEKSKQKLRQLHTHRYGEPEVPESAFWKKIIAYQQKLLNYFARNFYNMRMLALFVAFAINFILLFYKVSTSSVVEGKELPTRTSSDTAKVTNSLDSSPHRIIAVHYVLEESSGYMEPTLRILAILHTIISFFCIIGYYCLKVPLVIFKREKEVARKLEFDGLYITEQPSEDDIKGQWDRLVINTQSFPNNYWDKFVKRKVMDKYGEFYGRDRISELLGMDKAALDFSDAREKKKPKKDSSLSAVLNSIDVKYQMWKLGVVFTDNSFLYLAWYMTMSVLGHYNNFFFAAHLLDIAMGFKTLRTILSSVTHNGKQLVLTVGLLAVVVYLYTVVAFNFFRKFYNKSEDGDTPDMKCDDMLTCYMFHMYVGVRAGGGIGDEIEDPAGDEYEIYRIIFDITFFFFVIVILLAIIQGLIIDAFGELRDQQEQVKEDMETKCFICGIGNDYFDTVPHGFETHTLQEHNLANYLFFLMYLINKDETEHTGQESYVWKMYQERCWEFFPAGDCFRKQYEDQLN

CC(C)N[N+]([O-])=N[O-].[Na+] [IPA/NO, isopropylamine diazeniumdiolate]
effect on end-diastolic pressure-volume relationship (EDPVR) [1]: downward shift; also recorded: declined significantly

C/C=C(/C)C(=O)O[C@H]1C(C)=C2[C@H]([C@@H]1OC(=O)CCCCCCC)[C@@](C)(OC(C)=O)C[C@H](OC(=O)CCC)[C@@]1(O)[C@H]2OC(=O)[C@@]1(C)O [thapsigargin]
effect on Ca2+ sparks in control and AS (0.5 mM) cells (RyR2): abolished | effect on SR vesicle Ca2+ uptake (SR Ca2+ pump (SERCA2a); thapsigargin 10 μM): abolished

O=NO [NO2^−, nitrite]
effect on sarcomere shortening ([2]; 25-250 μM NO2- and higher or lower doses): no effect

CC(C)NCC(O)c1ccc(O)c(O)c1 (centres unmarked) [ISO, isoproterenol]
increase in sarcomere shortening ([2]; ISO 2.5 nM, n=30): 100±27% | effect of PKA inhibitor Rp-CPT-cAMPs on the agent's enhancement of sarcomere shortening ([2]; Rp-CPT-cAMPs 100 μM pre-treatment): blunts | contractile response ([3]; Gαq myocytes, ISO 2.5 and 10 nM): did not elicit any contractile response | enhancement of sarcomere shortening ([3]; ISO 2.5 nM): 74±24% | enhancement of sarcomere shortening ([3]; ISO 10 nM): 250±75%

ryanodine
effect on Ca2+ sparks in control and AS (0.5 mM) cells (RyR2): abolished

C=C[C@@]1(C)CC(=O)[C@]2(O)[C@@]3(C)[C@@H](O)CCC(C)(C)[C@@H]3[C@H](O)[C@H](OC(C)=O)[C@@]2(C)O1 [FSK, forskolin]
increase in sarcomere shortening ([3]; Gαq myocytes, 25 nM FSK): 85±9% | increase in sarcomere shortening ([3]; Gαq myocytes, 100 nM FSK): 158±62%

O=[N+]([O-])OCC(CO[N+](=O)[O-])O[N+](=O)[O-] [NTG, nitroglycerin]
effect on end-diastolic pressure-volume relationship (EDPVR) [1]: parallel down-ward shift | effect on end-diastolic pressure-volume relationship (EDPVR) ([1]; listed as nitroglycerin): parallel downward shift

CNc1ccc2oc(C[C@H]3O[C@@]4(CC[C@H]3C)O[C@H]([C@H](C)C(=O)c3ccc[nH]3)[C@H](C)C[C@H]4C)nc2c1C(=O)O [A23187]
decrease of total Ca2+ uptake (SR Ca2+ pump (SERCA2a); A23187 pre-incubation, 5 μg ionophore/mg SR protein): > 50%

CCN(CC)[N+]([O-])=N[O-].[Na+] [DEA/NO, sodium 2-(N,N-diethylamino)-diazenolate-2-oxide]
effect of co-application on ISO (2.5 nM)-stimulated sarcomere shortening ([2]; DEA/NO 0.25 mM, AS 0.5 mM): markedly blunted | reduction of sarcomere shortening ([2]; DEA/NO 5-50 μM): 55-65% | effect of PKG inhibitor Rp-8Br-cGMPs on the agent's inotropy ([2]; Rp-8Br-cGMPs 10 μM pre-treatment): modest positive response | reproduction of AS increase in sarcomere shortening by equimolar NO donor ([2]; equimolar to AS): not reproduced | effect on sarcomere shortening ([2]; higher doses): no effect; also recorded: minimal changes | effect on sarcomere shortening ([2]; low doses): slight depression | effect on Ca2+ spark frequency (RyR2; DEA/NO, increasing / equimolar doses): no effect; also recorded: did not significantly affect | effect on end-diastolic pressure-volume relationship (EDPVR) [1]: parallel down-ward shift
